Results taken from patent publication US12257347B2, “Pharmaceutical composition comprising meta arsenite and method of manufacture” (KOMIPHARM INT[…] PTY LTD, priority 2018, dated 2025).

What was measured:
[1] = Solubility of the supplied SMA drug substance; format: physicochemical
Text: (§1) Sodium meta-arsenite (“SMA”) was obtained from Sigma Aldrich Fine Chemicals. […]

[2] = Hygroscopicity (moisture uptake) of the supplied SMA drug substance; format: physicochemical
Text: as §1

O=[As][O-].[Na+] [SMA, sodium meta-arsenite]
Solubility [1]: Approx. 950 mg/mL | Hygroscopicity (moisture uptake) ([2]; at 75% RH): ~40% at 75% RH | Hygroscopicity (moisture uptake) ([2]; at 80% RH): >80% at 80% RH | Hygroscopicity (moisture uptake) ([2]; at 90% RH): >130% at 90% RH
